Results: patent US20090318424A1, “NOVEL COMPOUNDS” (priority 2006, published 2009)
Entries after “also recorded” stand apart in the source; their conditions may differ.

system: influx of neutrophils to the lung in LPS-challenged rats; assay: Rat LPS neutrophilia model; assay type: in vivo; details: LPS aerosol 100 ug/ml 15 min, lavage 4 hours later; in at least one of the range of conditions tested
Method: The effect of compounds on the influx of neutrophils to the lung in LPS-challenged rats is evaluated as follows. The test compound is suspended in one of the following solutions: 0.5% tween 80/PBS, 0.5% tween 80/saline, 10% EtOH/saline (with pH adjusted to 2.0, or 8.0 with HCl, or unadjusted), Saline @ pH 2.0, 6.5 or 8.0, 0.5% Tragacanth, 1% DMSO/20% Encapsin/Saline, or acidified 5% Tragacanth. The suspension process may be aided by the use of a glass homogenizer. For intratracheal administration, the animals are anesthetized with inhaled isoflurane and placed in a supine position, the trachea is intubated with a steel gavage needle (1.5 inch, 22 gauge, small ball) or a Penn-Century Microsprayer Aerosolizer (model IA-IB) and 200 ul of dosing solution is delivered. The animals are visually monitored during the recovery process, which typically occurs within two minutes.
Rats treated with compound or vehicle (15 min-24 hours pretreatment) are exposed to an LPS aerosol (100 ug/ml) for 15 min. Four hours later the rats are euthanized with pentobarbital (100 mg/kg, i.p.) and the airways are lavaged with 5 washes of 5 ml of phosphate buffered saline. The harvested cells are stained (Diffquick) and counted to determine total and differential cell data. In a typical study, macrophages represent 40-70% of the total cells, and polymorphonuclear cells 30-60% of the total cells. Inhibition of neutrophil levels relative to no compound controls is calculated based on the differential counts.
The assay has varying conditions, such as concentration, pretreat time, form of the compound (crystalline, amorphous, salts, micronised), and a wet or dry application of the compound. The data is obtained as % inhibition using a particular concentration and pretreat time.

Question: With Cc1ccc(C(=O)Nc2ccc(F)c(F)c2)cc1-c1nc(NCCN(C)C)nc2c1CNC(=O)N2c1c(F)cccc1F [Example 138, N-(3,4-difluorophenyl)-3-(8-(2,6-difluorophenyl)-2-{[2-(dimethylamino)-ethyl]amino}-7-oxo-5,6,7,8-tetrahydropyrimido[4,5-d]pyrimidin-4-yl)-4-methylbenzamide] as the compound, how does the inhibition of neutrophilia read?
Answer: statistically significant inhibition

Question: With Cc1ccc(C(=O)NC(C)C)cc1-c1nc(N2CCC(N3CCCC3)CC2)nc2c1CNC(=O)N2c1c(F)cccc1F [Example 60, 3-{8-(2,6-difluorophenyl)-7-oxo-2-[4-(1-pyrrolidinyl)-1-piperidinyl]-5,6,7,8-tetrahydropyrimido[4,5-d]pyrimidin-4-yl}-4-methyl-N-(1-methylethyl)benzamide] as the compound, how does the inhibition of neutrophilia read?
Answer: statistically nonsignificant inhibition; also recorded: inactive

Question: With CN(C)CCNc1nc(-c2cccc(C(=O)Nc3ccc(F)cc3)c2)c2c(n1)N(c1c(F)cccc1F)C(=O)NC2 [Example 93, 3-(8-(2,6-difluorophenyl)-2-{[2-(dimethylamino)ethyl]amino}-7-oxo-5,6,7,8-tetrahydropyrimido[4,5-d]pyrimidin-4-yl)-N-(4-fluorophenyl)benzamide] as the compound, how does the inhibition of neutrophilia read?
Answer: statistically nonsignificant inhibition

Question: With Cc1ccc(C(=O)NC(C)C)cc1-c1nc(N2CCC(N3CCN(C)CC3)CC2)nc2c1CNC(=O)N2c1c(F)cccc1F [Example 72, 3-{8-(2,6-difluorophenyl)-2-[4-(4-methyl-1-piperazinyl)-1-piperidinyl]-7-oxo-5,6,7,8-tetrahydropyrimido[4,5-d]pyrimidin-4-yl}-4-methyl-N-(1-methylethyl)benzamide] as the compound, how does the inhibition of neutrophilia read?
Answer: statistically significant inhibition

Question: Which inhibition of neutrophilia does the source give for CCN(CC)CCCNc1nc(-c2cc(C(=O)Nc3nccs3)ccc2C)c2c(n1)N(c1c(F)cccc1F)C(=O)NC2 [Example 120, 3-[2-{[3-(diethylamino)propyl]amino}-8-(2,6-difluorophenyl)-7-oxo-5,6,7,8-tetrahydropyrimido[4,5-d]pyrimidin-4-yl]-4-methyl-N-1,3-thiazol-2-ylbenzamide] here?
Answer: statistically significant inhibition

Question: Which inhibition of neutrophilia does the source give for Cc1ccc(C(=O)Nc2nccs2)cc1-c1nc(N(C)CCCN(C)C)nc2c1CNC(=O)N2c1c(F)cccc1F [Example 124, 3-{8-(2,6-difluorophenyl)-2-[[3-(dimethylamino)propyl](methyl)amino]-7-oxo-5,6,7,8-tetrahydropyrimido[4,5-d]pyrimidin-4-yl}-4-methyl-N-1,3-thiazol-2-ylbenzamide] here?
Answer: statistically nonsignificant inhibition

Question: For CN(C)CCNc1nc(-c2cccc(C(=O)Nc3nccs3)c2)c2c(n1)N(c1c(F)cccc1F)C(=O)NC2 [Example 92, 3-(8-(2,6-difluorophenyl)-2-{[2-(dimethylamino)ethyl]amino}-7-oxo-5,6,7,8-tetrahydropyrimido[4,5-d]pyrimidin-4-yl)-N-1,3-thiazol-2-ylbenzamide], which inhibition of neutrophilia is on record?
Answer: statistically significant inhibition

Question: Which inhibition of neutrophilia does the source give for Cc1ccc(C(=O)NC(C)C)cc1-c1nc(NCCN(C)C)nc2c1CNC(=O)N2c1c(F)cccc1F [Example 37, 3-(8-(2,6-difluorophenyl)-2-{[2-(dimethylamino)ethyl]amino}-7-oxo-5,6,7,8-tetrahydropyrimido[4,5-d]pyrimidin-4-yl)-4-methyl-N-(1-methylethyl)benzamide] here?
Answer: statistically nonsignificant inhibition

Question: Which inhibition of neutrophilia does the source give for Cc1ccc(C(=O)NC(C)C)cc1-c1nc(N(C)CCN(C)C)nc2c1CNC(=O)N2c1c(F)cccc1F [Example 36, 3-{8-(2,6-difluorophenyl)-2-[[2-(dimethylamino)ethyl](methyl)amino]-7-oxo-5,6,7,8-tetrahydropyrimido[4,5-d]pyrimidin-4-yl}-4-methyl-N-(1-methylethyl)benzamide] here?
Answer: statistically significant inhibition

Question: Which inhibition of neutrophilia does the source give for Cc1ccc(C(=O)Nc2ccccc2)cc1-c1nc(NCCN(C)C)nc2c1CNC(=O)N2c1c(F)cccc1F [Example 137, 3-(8-(2,6-difluorophenyl)-2-{[2-(dimethylamino)ethyl]amino}-7-oxo-5,6,7,8-tetrahydropyrimido[4,5-d]pyrimidin-4-yl)-4-methyl-N-phenylbenzamide] here?
Answer: statistically significant inhibition

Question: With CSc1nc(-c2cc(NC(=O)c3ccc(C)c(F)c3)ccc2C)c2c(n1)N(c1c(F)cccc1F)C(=O)NC2 [23(c), N-{3-[8-(2,6-difluorophenyl)-2-(methylthio)-7-oxo-5,6,7,8-tetrahydropyrimido[4,5-d]pyrimidin-4-yl]-4-methylphenyl}-3-fluoro-4-methylbenzamide] as the compound, how does the inhibition of neutrophilia read?
Answer: inactive

Question: For CCCNC(=O)c1ccc(C)c(-c2nc(NCCCN(CC)CC)nc3c2CNC(=O)N3c2c(F)cccc2F)c1 [29(c), 3-[2-{[3-(diethylamino)propyl]amino}-8-(2,6-difluorophenyl)-7-oxo-5,6,7,8-tetrahydropyrimido[4,5-d]pyrimidin-4-yl]-4-methyl-N-propylbenzamide], which inhibition of neutrophilia is on record?
Answer: statistically significant inhibition

Question: Which inhibition of neutrophilia does the source give for Cc1ccc(C(=O)Nc2nccs2)cc1-c1nc(NC[C@H](C)O)nc2c1CNC(=O)N2c1c(F)cccc1F [Example 134, 3-(8-(2,6-difluorophenyl)-2-{[(2S)-2-hydroxypropyl]amino}-7-oxo-5,6,7,8-tetrahydropyrimido[4,5-d]pyrimidin-4-yl)-4-methyl-N-1,3-thiazol-2-ylbenzamide] here?
Answer: statistically nonsignificant inhibition

Question: For Cc1ccc(C(=O)NC(C)C)cc1-c1nc(NC2CCN(Cc3ccccc3)CC2)nc2c1CNC(=O)N2c1c(F)cccc1F [Example 200, 3-(8-(2,6-difluorophenyl)-7-oxo-2-{[1-(phenylmethyl)-4-piperidinyl]amino}-5,6,7,8-tetrahydropyrimido[4,5-d]pyrimidin-4-yl)-4-methyl-N-(1-methylethyl)benzamide], which inhibition of neutrophilia is on record?
Answer: statistically significant inhibition

Question: Which inhibition of neutrophilia does the source give for Cc1ccc(C(=O)Nc2nccs2)cc1-c1nc(NCCN(C)C)nc2c1CNC(=O)N2c1c(F)cccc1F [118(c), 3-(8-(2,6-difluorophenyl)-2-{[2-(dimethylamino)ethyl]amino}-7-oxo-5,6,7,8-tetrahydropyrimido[4,5-d]pyrimidin-4-yl)-4-methyl-N-1,3-thiazol-2-ylbenzamide] here?
Answer: statistically significant inhibition

system: not given; assay: not given; details: not given

Question: With CCCCN(CCCC)CCCNc1nc(-c2cc(C(=O)NC)ccc2C)c2c(n1)N(c1c(F)cccc1F)C(=O)NC2 [Example 171, 3-[2-{[3-(dibutylamino)propyl]amino}-8-(2,6-difluorophenyl)-7-oxo-5,6,7,8-tetrahydropyrimido[4,5-d]pyrimidin-4-yl]-N,4-dimethylbenzamide] as the compound, how does the melting point read?
Answer: 112 to 115 °C

Question: Which melting point does the source give for Cc1ccc(C(=O)NCc2ccccc2)cc1-c1nc(N2CCC(N)CC2)nc2c1CNC(=O)N2c1c(F)cccc1F [15(c), 3-[2-(4-Amino-1-piperidinyl)-8-(2,6-difluorophenyl)-7-oxo-5,6,7,8-tetrahydropyrimido[4,5-d]pyrimidin-4-yl]-4-methyl-N-(phenylmethyl)benzamide] here?
Answer: 210 to 266 °C (dec.)

Question: Which melting point does the source give for CNC(=O)c1ccc(C)c(-c2nc(NCCNC(C)C)nc3c2CNC(=O)N3c2c(F)cccc2F)c1 [Example 167, 3-[8-(2,6-difluorophenyl)-2-({2-[(1-methylethyl)amino]ethyl}amino)-7-oxo-5,6,7,8-tetrahydropyrimido[4,5-d]pyrimidin-4-yl]-N,4-dimethylbenzamide] here?
Answer: 136 to 139 °C (dec.)
